Measured values reported in patent US20260101892A1, “METHOD TO INHIBIT PROLIFERATION OF A PHYTOPATHOGEN ON PLANTS AND COMPOSITIONS USED FOR THIS PURPOSE” (CYSBIO APS, priority 2022, published 2026).
Like-named read-outs stand apart in the source and are kept apart here.

Columns and labels:
[1] = tested on: late potato blight (Phytophtora infestans); format: in vivo, Phytophthora infestans; details: for reduction of pest severity: 5% zosteric acid and 0.3 L/ha BREAK THRU, vs untreated control
[2] = tested on: potatoes (Solanum tuberosum, variety Venezia); experiment: Phytotoxicity assessment in the potato blight climate chamber test; format: in vivo; details: throughout the trials (0.1%, 1%, 5% zosteric acid)
Procedure: The application was conducted with a Research Track Sprayer and three different concentrations of zosteric acid (0.1%, 1%, and 5%) were sprayed one day before pathogen inoculation and two different concentrations of zosteric acid (1% and 5%) were sprayed after inoculation as soon as the infection got visible. Plants were assessed for phytotoxicity and pest severity 0, 4, and 7 days after the curative application.

Alternaria alternata = experiment: Post-harvest preservation of capsicums; format: in vivo; details: capsicums sprayed twice, 10° C., followed 25 days, triplicate
Procedure: (§1) To investigate if zosteric acid and/or coumaric acid can protect fruit and vegetables against post-harvest infection with different fungi, zosteric and coumaric acids fungicidal effect was tested in capsicums and lemons infected with Alternaria alternata and Penicillium digitatum, respectively. The tests were performed by acquiring the relevant fruit and vegetables from the local supermarket. Both fruit and vegetables were bought as organic produce to ensure a minimum of pesticides had already been applied. […] Each application treatment was performed in triplicate on three separate pieces of produce. After treatment, the produce was allowed to dry in a sterile laminar flow cabinet followed by a second round of application and drying. The produce was then inoculated with the relevant fungal spores using a grafting stick. […] The inoculated produce was subsequently placed in […] plastic bags to prevent contamination with other organisms and to prevent the produce from drying out due to air circulation in the incubator. The wrapped capsicums and lemons were placed at 10° C. and the fungal growth followed by measuring the diameter of the growth from the point of inoculation for 25 days.

Penicillium digitatum = experiment: Post-harvest preservation of lemons; format: in vivo
Procedure: as §1

[3] = tested on: strawberries (Fragaria sp.); experiment: Phytotoxicity evaluation in the strawberry powdery mildew trial; format: in vivo; details: at concentrations that control disease
[4] = tested on: Blumeria graminis f. sp. tritici; experiment: Powdery mildew in wheat; format: in vivo; details: crop Wheat
Ustilago nuda = experiment: Loose smut of barley; format: in vivo; details: crop Barley
Septoria tritici = experiment: Septoria leaf blotch; format: in vivo
Leptosphaeria maculans = experiment: Blackleg disease in winter rape; format: in vivo; details: crop Brassica napus / winter rape
Cercospora beticola = experiment: Cercospora leaf spot disease in sugarbeet; format: in vivo; details: crop Beta vulgaris vulg. altissima / sugarbeet
Magnaporthe grisea = details: Rice blast; crop Rice; Stanley 2002; cited from earlier work
[5] = tested on: Colletotrichum lindemuthianum; details: Bean anthracnose; crop Bean; Stanley 2002; cited from earlier work
Penicillium citrinum = details: Mold on citrus fruits; N/A (In vitro); Villa et al 2010; cited from earlier work
Aspergillus niger = details: Common mold; N/A (In vitro); Villa et al 2010; cited from earlier work
pyronophora graminea = experiment: Seed dressing against barley stripe
Procedure: (§2) To investigate if zosteric acid can be applied as a seed dressing agent to prevent different seed borne fungal infections, the ability of zosteric acid to prevent infection of wheat and barley with the common bunt of wheat caused by tilletia caries and barley stribe, caused by pyronophora graminea was tested.
(§3) To investigate if zosteric acid can be applied as a seed dressing agent to prevent different seed borne fungal infections, the ability of zosteric acid to prevent infection of wheat and barley with the common bunt of wheat caused by tilletia caries and barley stribe, caused by pyronophora graminea) was tested.

tilletia caries = experiment: Seed dressing against common bunt of wheat
Procedure: as §2, §3

Puccinia striiformis = experiment: Yellow rust in wheat, greenhouse trial, contact fungicide; details: crop Wheat
Procedure: A greenhouse trial was conducted to investigate if zosteric acid could be applied as a contact fungicide to control yellow rust in wheat. Wheat was sowed in one-liter pots, with five replicates per treatment. 14 days after sowing, plants were sprayed with 150 L/ha of 10% zosteric acid with 0.1% Tween. For reference, an untreated control, a treatment with 0.1% Tween, and a treatment with a currently used standard fungicide treatment for yellow rust was also included in the test. One day after spraying of the plants, they were inoculated with Puccinia striiformis which is the causative agent of yellow rust. Plants were assessed for attack with yellow rust 13, 19 and 21 days after infection with yellow rust.

[6] = tested on: European grapes (Vitis vinifera); experiment: Phytotoxicity evaluation in the grapevine downy mildew trial
[7] = tested on: powdery mildew (Podosphaera aphanis); experiment: Powdery mildew in strawberries, controlled environment trial; details: crop Strawberries
Procedure: The efficacy was evaluated as % area of leaves that were infected with disease based on evaluation of 50 leaves from each plant. The evaluation was performed 30 days after the first treatment and 10 days after the last treatment.
Five different treatments were applied; 1) an untreated control, 2) zosteric acid at 3%, 3) zosteric acid at 6%, 4) zosteric acid at 9%, 5) Karma at 3 kg/ha. […] Four treatment applications were performed at day 0, 7, 14, and 21 respectively. Prior to each application the infection and phytotoxicity of the plants were evaluated and scored.

[8] = tested on: downy mildew in grapevine (plasmopara viticola); experiment: Downy mildew in grapevine, controlled environment trial, foliar spray

O=C(O)/C=C/c1ccc(OS(=O)(=O)O)cc1 [zosteric acid]
reduction of pest severity ([1]; 0 days from the curative treatment): 7.8% | reduction of pest severity ([1]; 4 days from the curative treatment): 7.3% | reduction of pest severity ([1]; 7 days from the curative treatment): 6.6% | zosteric acid effective (Yes/No) ([1]; Potato blight, crop Solanum tuberosum / potato): highly effective and Yes | phytotoxic effects [2]: No phytotoxic effects were observed | time after inoculation until A. alternata growth was displayed (Alternaria alternata): 19 days | time after inoculation until P. digitatum growth was observed (Penicillium digitatum; lemons sprayed twice, 10° C., followed 25 days, triplicate): 19 days | replicates with P. digitatum growth at end of test period (Penicillium digitatum; lemons, day 25, three replicates): only a single replicate | phytotoxicity [3]: no phytotoxicity | zosteric acid effective (Yes/No) [4]: not effective and No | zosteric acid effective (Yes/No) (Ustilago nuda): no efficacy and No | zosteric acid effective (Yes/No) (Septoria tritici): not effective and No | zosteric acid effective (Yes/No) (Leptosphaeria maculans): not effective and No | zosteric acid effective (Yes/No) (Cercospora beticola): not effective and No | zosteric acid effective (Yes/No) (Magnaporthe grisea): Yes | zosteric acid effective (Yes/No) [5]: Yes | zosteric acid effective (Yes/No) (Penicillium citrinum): Yes | zosteric acid effective (Yes/No) (Aspergillus niger): Yes | zosteric acid effective (Yes/No) (pyronophora graminea; Barley stripe, crop Barley): Yes | reduction of percentage of infected plant ears compared to untreated control (pyronophora graminea; barley seeds treated with 0.1% zosteric acid): more than 2 fold | reduction of percentage of infected plant ears compared to untreated control (pyronophora graminea; barley seeds treated with 1% zosteric acid): more than 2 fold | zosteric acid effective (Yes/No) (tilletia caries; Common bunt of wheat, crop Wheat): good efficacy and Yes | effect in combination with Redigo Pro (tilletia caries; protection against common bunt of wheat, seed dressing): strong synergistic effect | reduction of percentage of infected plant ears compared to untreated control (tilletia caries; wheat seeds treated with 0.1% zosteric acid): more than 2 fold | reduction of percentage of infected plant ears compared to untreated control (tilletia caries; wheat seeds treated with 1% zosteric acid): more than 2 fold | zosteric acid effective (Yes/No) (Puccinia striiformis): effective and Yes | phytotoxicity ([6]; 1% zosteric acid, scored 13 days after application): < 0.5% | phytotoxicity ([6]; 5% treatment, Example 9 trial): 7% | phytotoxic effects ([6]; at the effective concentration, scored 13 days after application): does not have significant phytotoxic effects | phytotoxicity ([6]; high concentrations (>2%), scored 13 days after application): start to be phytotoxic | zosteric acid effective (Yes/No) [7]: Yes | zosteric acid effective (Yes/No) ([8]; Downy mildew in wine, crop Vitis vinifera / European grape): highly effective and Yes | efficacy compared with positive control Funguran Progress (copper) ([8]; Example 9 trial): comparable to the positive control Funguran Progress | dose response of disease control ([8]; increasing doses of zosteric acid, scored 17 days after application): clear dose response
